Measured values: the supplement of paper PMC6045584
± gives the standard deviation of the averaged measurements.

Tests used:
ABIRATERONE = compound: C[C@]12CC[C@H](O)CC1=CC[C@@H]1[C@@H]2CC[C@]2(C)C(c3cccnc3)=CC[C@@H]12 [ABIRATERONE]; assay: surviving fraction relative to DMSO-only wells; higher = less growth inhibition; conditions: exposure time: 5 days
How it was run: (§1)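 Viability values are CellTiter-Glo luminescence readings, given as surviving fraction against the median of DMSO-only wells. The readings were taken after 10 minutes at room temperature, following five days of continuous exposure to inhibitors at 0.5, 1, 5, 10, 50, 100, 500 and 1000 nM that began 24 hours after log-phase tumour cell lines were seeded at 250–500 cells per well in 384-well plates. Every line was screened three times and kept only if replicate Pearson r >0.7 and median Z' >0.3.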

MLN-4924 = compound: NS(=O)(=O)OC[C@@H]1C[C@@H](n2ccc3c(N[C@H]4CCc5ccccc54)ncnc32)C[C@@H]1O [MLN-4924]; assay: as above; conditions: exposure time: 5 days
How it was run: as §1

Test System	surviving fraction (ABIRATERONE; 0.5 nM)	surviving fraction (ABIRATERONE; 1 nM)	surviving fraction (ABIRATERONE; 5 nM)	surviving fraction (ABIRATERONE; 10 nM)	surviving fraction (ABIRATERONE; 50 nM)	surviving fraction (ABIRATERONE; 100 nM)	surviving fraction (ABIRATERONE; 500 nM)	surviving fraction (ABIRATERONE; 1000 nM)	surviving fraction (MLN-4924; 0.5 nM)	surviving fraction (MLN-4924; 1 nM)	surviving fraction (MLN-4924; 5 nM)	surviving fraction (MLN-4924; 10 nM)	surviving fraction (MLN-4924; 50 nM)	surviving fraction (MLN-4924; 100 nM)	surviving fraction (MLN-4924; 500 nM)	surviving fraction (MLN-4924; 1000 nM)
SYO1 SYNOVIAL	1.01 ± 0.048	1.03 ± 0.02	1.03 ± 0.014	1.01 ± 0.013	1.031 ± 0.0036	1.03 ± 0.029	1.01 ± 0.018	1.01 ± 0.062	0.996 ± 0.05	0.996 ± 0.029	1.01 ± 0.039	0.992 ± 0.03	0.65 ± 0.019	0.334 ± 0.028	0.0614 ± 0.0023	0.0519 ± 0.0031
T47D BREAST	1.04 ± 0.048	1.08 ± 0.031	1.05 ± 0.018	1.08 ± 0.063	1.18 ± 0.068	1.14 ± 0.022	1.1 ± 0.069	1.13 ± 0.051	1.04 ± 0.012	1.02 ± 0.021	0.916 ± 0.036	0.835 ± 0.037	0.67 ± 0.023	0.694 ± 0.011	0.279 ± 0.019	0.27 ± 0.028
U2OS BONE	1.04 ± 0.05	1.03 ± 0.029	1.1 ± 0.035	1.096 ± 0.004	1.19 ± 0.031	1.08 ± 0.022	1.1 ± 0.016	1.09 ± 0.032	1.028 ± 0.0045	1.01 ± 0.015	0.988 ± 0.04	1.03 ± 0.049	1.04 ± 0.036	0.859 ± 0.022	0.403 ± 0.028	0.176 ± 0.015
VCAP PROSTATE	1.13 ± 0.024	1.07 ± 0.083	1.19 ± 0.049	1.12 ± 0.073	1.22 ± 0.1	1.18 ± 0.18	1.02 ± 0.1	0.967 ± 0.11	0.977 ± 0.06	1.08 ± 0.074	1.08 ± 0.15	0.926 ± 0.035	0.526 ± 0.029	0.401 ± 0.088	0.198 ± 0.046	0.169 ± 0.079
VP229 BREAST	1.03 ± 0.052	0.99 ± 0.032	0.997 ± 0.1	1.09 ± 0.1	1.03 ± 0.013	1.04 ± 0.03	1.26 ± 0.16	1.11 ± 0.16	1.07 ± 0.16	1.08 ± 0.19	1.17 ± 0.028	1.14 ± 0.22	1.04 ± 0.033	0.891 ± 0.12	0.233 ± 0.082	0.127 ± 0.022
YAMATO SYNOVIAL	1.37 ± 0.033	1.52 ± 0.058	1.48 ± 0.12	1.45 ± 0.14	1.39 ± 0.14	1.46 ± 0.078	1.38 ± 0.025	1.22 ± 0.14	1.33 ± 0.091	1.25 ± 0.019	1.33 ± 0.085	1.31 ± 0.21	1.21 ± 0.11	0.805 ± 0.058	0.637 ± 0.041	0.492 ± 0.045
ZR751 BREAST	1.1 ± 0.11	1.18 ± 0.16	1.15 ± 0.1	1.19 ± 0.099	1.09 ± 0.19	1.08 ± 0.17	0.854 ± 0.13	0.731 ± 0.21	1.23 ± 0.056	1.08 ± 0.17	1.13 ± 0.13	1.24 ± 0.036	1.06 ± 0.13	1.03 ± 0.092	0.784 ± 0.11	0.669 ± 0.063
